Results from patent US7867990B2, “Steroid hormone products and methods for preparing them” (Ortho-McNeil Pharmaceutical, Inc., priority 2001, dated 2011).

Assays:
[1] = PXRD pattern of norgestimate:lactose mixtures after milling; type: physicochemical; conditions: milled 20 minutes, mill type not specified at the place
Protocol: Research efforts were thus made to generate the non-crystalline form of norgestimate in the presence and absence of lactose via physical and mechanical processes. Various mixtures of norgestimate and lactose were prepared. To permit qualitative or semi-quantitative analysis, the ingredients were thoroughly mixed in ratios of 1:1 and 1:9 by either dissolving them in a co-solvent mixture or by co-grinding. Qualitative assessment of the degree of crystallinity was performed employing Powder X-Ray Diffractometry (PXRD).
Mixtures of norgestimate and lactose, in amorphous and crystalline forms, were milled for 20 minutes. The amorphous state of each ingredient and of the mixture was confirmed by powder x-ray pattern diffraction (PXRD).

[2] = Dissolution of crystalline and non-crystalline norgestimate (USP Apparatus 2, 75 rpm, 600 ml of 0.05% Tween 20); type: physicochemical; conditions: 600 ml 0.05% Tween 20
Protocol: Employing the current dissolution standard (USP Apparatus 2, 75 rpm, 600 ml of 0.05% Tween 20), the dissolution rates and extent of dissolution for individual samples of both crystalline and non-crystalline norgestimate were compared. […]

[3] = DSC thermal analysis: glass-transition temperature (Tg) and crystallization exotherm (Tc); type: physicochemical
Protocol: The lactose/norgestimate mixtures made as in Example 2 were subjected to thermal analysis, according to conventional Differential Scanning Calorimetry (DSC). […] Glass-transition temperature measurements generally entail trial runs on a DSC to obtain an optimal method for observing glass-transition events. […] Some amorphous norgestimate samples produce a weak Tg event at 122-123° C., while other samples shown an exothermic event, probably because of norgestimate crystallization. All of the norgestimate samples show a similar endothermic event at 226-228° C. The thermal gravimetric analysis (TGA) of samples show rapid weight loss at that temperature, therefore, the endotherm over 220° C. primarily corresponds to decomposition. The Merck Index lists the melting temperature of the crystalline norgestimate at 214-218° C. […] This thermal event (Tc) was used to measure the stability of different simulated drug products. The temperature of Tc- should be higher if norgestimate is stabilized by lactose.

[4] = Dissolution of norgestimate from tablets manufactured by dry processing, pilot and production scale; type: physicochemical; conditions: dry-processed tablets
Protocol: Differences in the dissolution behavior of norgestimate from tablets manufactured by dry processing on both a pilot scale and a production scale were also evaluated. The minimum mechanical energy of 0.1 hp-min/kg can be imparted in a dry process using a geometric tumbler blender equipped for additional mixing energy with blades or choppers. A progestin such as norgestimate can be combined with lactose and additives. Increasing the length of processing time with the blades or choppers in use would impart sufficient energy to produce the forms identified in this invention. […] The important of dissolution rate as a function of mixing time is also noted.

[5] = Dissolution of norgestimate co-milled with lactose 1:9 in 100 ml 0.05% Tween 20 as a function of storage time; type: physicochemical; conditions: for Norgestimate Concentration Time = 0 Days: storage 0 days; for Norgestimate Concentration Time = 44 Days: stored 44 days at 40° C./75% RH
[6] = Physical stability (recrystallization) of amorphous materials in humidity chambers, followed by PXRD; conditions: for Stability of Amorphous Norgestimate (onset of norgestimate recrystallization), 0% RH: 0% RH humidity chamber; for Stability of Amorphous Norgestimate (onset of norgestimate recrystallization), 0% RH / Stability of Amorphous Norgestimate (onset of norgestimate recrystallization), 31% RH / Stability of Amorphous Norgestimate (onset of norgestimate recrystallization), 76% RH: PXRD; for Stability of Amorphous Norgestimate (onset of norgestimate recrystallization), 31% RH: 31% RH humidity chamber; for Stability of Amorphous Norgestimate (onset of norgestimate recrystallization), 76% RH: 76% RH humidity chamber
[7] = Dissolution of norgestimate from tablets manufactured by wet processing, initial and after accelerated storage; type: physicochemical; conditions: for Percent Norgestimate Dissolved in 30 Minutes, 1 month 40° C./75% RH: wet-processed tablets stored unprotected; for Percent Norgestimate Dissolved in 30 Minutes, Initial: wet-processed tablets
Description: The data in Table 4 further support the existence of a high energy form of norgestimate in the presence of lactose. […] Like the data reported in Table 2, dissolution properties are dependent on storage conditions. However it is apparent that the extent of such changes is further dependent on the mixing energetics imparted during the process.

## OC[C@H]1O[C@@H](O[C@H]2[C@H](O)[C@@H](O)C(O)O[C@@H]2CO)[C@H](O)[C@@H](O)[C@H]1O (stereo partly shown) [lactose]
[1]
  Solid-state form of lactose after milling with norgestimate (PXRD): partially crystalline

## C#C[C@]1(OC(C)=O)CC[C@H]2[C@@H]3CCC4=CC(=NO)CC[C@@H]4[C@H]3CC[C@@]21CC [Crystalline Norgestimate, norgestimate]
[2]; dissolution time 5 min
  Norgestimate concentration dissolved: 0.43 µg/mL
[2]; dissolution time 60 min
  Norgestimate concentration dissolved: 0.81 µg/mL
[2]; dissolution time 140 min
  Norgestimate concentration dissolved: 1.36 µg/mL

## OC[C@H]1O[C@@H](O[C@H]2[C@H](O)[C@@H](O)C(O)O[C@@H]2CO)[C@H](O)[C@@H](O)[C@H]1O (stereo partly shown) [Amorphous lactose, lactose]
[3]
  Tg (glass-transition temperature): 114-115 °C

## C#C[C@]1(OC(C)=O)CC[C@H]2[C@@H]3CCC4=CC(=NO)CC[C@@H]4[C@H]3CC[C@@]21CC (mixture of isomers) [Norgestimate, norgestimate]
[4]; pilot scale, mixing time 5 minutes
  Percent Norgestimate Dissolved in 20 Minutes: 78.4%
[4]; pilot scale, mixing time 10 minutes
  Percent Norgestimate Dissolved in 20 Minutes: 85%
[4]; pilot scale, mixing time 20 minutes
  Percent Norgestimate Dissolved in 20 Minutes: 88.5%
[4]; pilot scale, mixing time 30 minutes
  Percent Norgestimate Dissolved in 20 Minutes: 97.4%
[4]; pilot scale, mixing time 33 minutes
  Percent Norgestimate Dissolved in 20 Minutes: 93.6%
[4]; pilot scale, mixing time […]
  Percent Norgestimate Dissolved in 20 Minutes: 74.9%
[4]; production scale, mixing time 4.8 minutes
  Percent Norgestimate Dissolved in 20 Minutes: 64.7%
[4]; production scale, mixing time 12 minutes
  Percent Norgestimate Dissolved in 20 Minutes: 81.2%
[4]; production scale, mixing time 15 minutes
  Percent Norgestimate Dissolved in 20 Minutes: 90.3%
[4]; production scale, mixing time 30 minutes
  Percent Norgestimate Dissolved in 20 Minutes: 92.8%
[4]; production scale, mixing time 45 minutes
  Percent Norgestimate Dissolved in 20 Minutes: 96.2%
[4]; production scale, mixing time 60 minutes
  Percent Norgestimate Dissolved in 20 Minutes: 97.4%
[4]; production scale, mixing time 75 minutes
  Percent Norgestimate Dissolved in 20 Minutes: 97.2%
[1]
  Solid-state form of norgestimate after milling with lactose (PXRD): non-crystalline
[5]; dissolution time 10 min
  Norgestimate Concentration Time = 0 Days: 5.3 µg/mL
  Norgestimate Concentration Time = 44 Days: 2.4 µg/mL
[5]; dissolution time 20 min
  Norgestimate Concentration Time = 0 Days: 5.1 µg/mL
  Norgestimate Concentration Time = 44 Days: 5.2 µg/mL
[5]; dissolution time 30 min
  Norgestimate Concentration Time = 0 Days: 6.2 µg/mL
  Norgestimate Concentration Time = 44 Days: 6.5 µg/mL
[5]; dissolution time 60 min
  Norgestimate Concentration Time = 0 Days: 8.7 µg/mL
  Norgestimate Concentration Time = 44 Days: 5.9 µg/mL
[5]; dissolution time 240 min
  Norgestimate Concentration Time = 0 Days: 10 µg/mL
  Norgestimate Concentration Time = 44 Days: 6.7 µg/mL
[5]; dissolution time 720 min
  Norgestimate Concentration Time = 0 Days: 10.3 µg/mL
  Norgestimate Concentration Time = 44 Days: 7.3 µg/mL
[6]
  Stability of Amorphous Norgestimate (onset of norgestimate recrystallization), 0% RH: <3 days
  Stability of Amorphous Norgestimate (onset of norgestimate recrystallization), 31% RH: <1 day days
  Stability of Amorphous Norgestimate (onset of norgestimate recrystallization), 76% RH: <1 day days
[6]; in the absence of lactose, room temperature, 0% RH chamber
  Time to recrystallization of norgestimate: ≤ 3 days
[6]; norgestimate co-milled with lactose 1:9, approximately 40° C. at 75% RH
  Time norgestimate remained partially crystalline: at least 44 days
[7]; blend time 0 minutes
  Percent Norgestimate Dissolved in 30 Minutes, 1 month 40° C./75% RH: 36%
  Percent Norgestimate Dissolved in 30 Minutes, Initial: 75.4%
[7]; blend time 2* minutes
  Percent Norgestimate Dissolved in 30 Minutes, 1 month 40° C./75% RH: 45%
  Percent Norgestimate Dissolved in 30 Minutes, Initial: 91%
[7]; blend time 20 minutes
  Percent Norgestimate Dissolved in 30 Minutes, 1 month 40° C./75% RH: 45%
  Percent Norgestimate Dissolved in 30 Minutes, Initial: 90.1%
[7]; blend time 40 minutes
  Percent Norgestimate Dissolved in 30 Minutes, 1 month 40° C./75% RH: 46%
  Percent Norgestimate Dissolved in 30 Minutes, Initial: 92.6%
[7]; blend time 60 minutes
  Percent Norgestimate Dissolved in 30 Minutes, 1 month 40° C./75% RH: 85%
  Percent Norgestimate Dissolved in 30 Minutes, Initial: 94.5%

## C#C[C@]1(OC(C)=O)CC[C@H]2[C@@H]3CCC4=CC(=NO)CC[C@@H]4[C@H]3CC[C@@]21CC (mixture of isomers) [Amorphous Norgestimate, norgestimate]
[3]
  Tc (crystallization of norgestimate): 105 °C
  Tg (glass-transition temperature): 122-123 °C
[6]
  Stability of Amorphous Norgestimate (onset of norgestimate recrystallization), 0% RH: < 3 days
  Stability of Amorphous Norgestimate (onset of norgestimate recrystallization), 31% RH: less than 1 days
  Stability of Amorphous Norgestimate (onset of norgestimate recrystallization), 76% RH: less than 1 days
[6]; room temperature, 0%, 31% and 76% RH (all conditions tested)
  Time to complete recrystallization of amorphous norgestimate: ≤ 3 days
[2]; dissolution time 5 min
  Norgestimate concentration dissolved: 0.44 µg/mL
[2]; dissolution time 60 min
  Norgestimate concentration dissolved: 1.38 µg/mL
[2]; dissolution time 120 min
  Norgestimate concentration dissolved: 1.88 µg/mL
